Test results as given in publication PMC3087488 (Journal of Oncology, 2011).

Experiment: adverse events in patients (CTCAE version 3.0)
Assay type: in vivo, human
Details: for Any motesanib-related AE, Grade 3 / Any motesanib-related AE, Grade 4 / Any motesanib-related AE, Grade 5 / Motesanib-related AE: Anorexia / Motesanib-related AE: Constipation / Motesanib-related AE: Deep vein thrombosis / Motesanib-related AE: Dehydration / Motesanib-related AE: Dermatitis acneiform / Motesanib-related AE: Diarrhea / Motesanib-related AE: Erythema / Motesanib-related AE: Fatigue / Motesanib-related AE: Hypertension / Motesanib-related AE: Nausea / Motesanib-related AE: Pulmonary embolism / Motesanib-related AE: Rash / Motesanib-related AE: Vomiting / Motesanib-related Arterial thromboembolic events (all grades) / Motesanib-related Arterial thrombosis, Grade 3 / Motesanib-related Arterial thrombosis, Grade 4 / Motesanib-related Cerebrovascular accident, Grade 2 / Motesanib-related Deep vein thrombosis, Grade 2 / Motesanib-related Deep vein thrombosis, Grade 3 / Motesanib-related Gallbladder disorder, Grade 1 / Motesanib-related Hemorrhagic events, Grade 1 / Motesanib-related Jugular vein thrombosis, Grade 2 / Motesanib-related Neutropenia, Grade 3 / Motesanib-related Pulmonary embolism, Grade 4 / Motesanib-related Pulmonary embolism, Grade 5 / Motesanib-related Venous thromboembolic events (all grades) / Patients with any motesanib-related AE: gemcitabine/cisplatin
Protocol: Adverse events were recorded throughout the study and graded (including DLTs) according to the Common Terminology Criteria for Adverse Events, version 3.0. Samples for assessment of hematology, blood chemistry, urinalysis, and thyroid function were collected on day 1 of each cycle.

[1] = 33 patients who received motesanib, all cohorts
[2] = listed after the 125-mg QD cohort
[3] = motesanib 50 mg QD (n = 8) + panitumumab
[4] = motesanib 75 mg BID (n = 2) + panitumumab
[5] = motesanib 75 mg QD (n = 6) + panitumumab

CC1(C)CNc2cc(NC(=O)c3cccnc3NCc3ccncc3)ccc21 [motesanib]
grade 3 cholelithiasis (100 mg QD cohort): One | grade 1 jaundice (125 mg QD cohort): one | motesanib-related anorexia [1]: 8 patients | motesanib-related diarrhea [1]: 10 patients | motesanib-related fatigue [1]: 14 patients | motesanib-related hypertension [1]: 15 patients | motesanib-related nausea [1]: 15 patients | motesanib-related pulmonary embolism [1]: 8 patients | motesanib-related vomiting [1]: 8 patients | patients with serious motesanib-related adverse events (125-mg QD cohort): 8 patients | hypothyroidism (all cohorts): did not occur | patients who discontinued motesanib because of adverse events (all cohorts): 13 patients | patients with motesanib-related venous thromboembolic events (all cohorts, 10 patients): 24% | patients with grade 4 or 5 pulmonary embolism (all cohorts, eight patients (one grade 5)): 20% | patients with deep vein thrombosis (grade 2 or 3) (all cohorts, four patients): 10% | patients with serious adverse events considered related to motesanib (all cohorts, fourteen patients): 34% | patients with grade 2 jugular vein thrombosis (all cohorts, one patient): 2% | patients with motesanib-related serious adverse event with a worst grade of 4 (all cohorts, six patients): 15% | patients with motesanib-related arterial thromboembolic events (all cohorts, three patients): 7% | cholecystitis (any tested dose level): did not occur | serious motesanib-related arterial thrombosis [2]: 1 patients | serious motesanib-related asthenia [2]: 1 patients | serious motesanib-related atrial fibrillation [2]: 1 patients | serious motesanib-related confusional state [2]: 1 patients | serious motesanib-related deep vein thrombosis [2]: 2 patients | serious motesanib-related dehydration [2]: 2 patients | serious motesanib-related diarrhea [2]: 2 patients | serious motesanib-related headache [2]: 1 patients | serious motesanib-related hyponatremia [2]: 1 patients | serious motesanib-related pulmonary embolism [2]: 3 patients | serious motesanib-related sudden death [2]: 1 patients | Any motesanib-related AE, Grade 3 [3]: 2 (25) n (%) | Any motesanib-related AE, Grade 4 [3]: 0 (0) n (%) | Any motesanib-related AE, Grade 5 [3]: 1 (13) n (%) | Motesanib-related AE: Anorexia [3]: 2 (25) n (%) | Motesanib-related AE: Constipation [3]: 0 (0) n (%) | Motesanib-related AE: Deep vein thrombosis [3]: 1 (13) n (%) | Motesanib-related AE: Dehydration [3]: 0 (0) n (%) | Motesanib-related AE: Dermatitis acneiform [3]: 1 (13) n (%) | Motesanib-related AE: Diarrhea [3]: 1 (13) n (%) | Motesanib-related AE: Erythema [3]: 1 (13) n (%) | Motesanib-related AE: Fatigue [3]: 4 (50) n (%) | Motesanib-related AE: Hypertension [3]: 3 (38) n (%) | Motesanib-related AE: Nausea [3]: 4 (50) n (%) | Motesanib-related AE: Pulmonary embolism [3]: 1 (13) n (%) | Motesanib-related AE: Rash [3]: 0 (0) n (%) | Motesanib-related AE: Vomiting [3]: 2 (25) n (%) | Motesanib-related Arterial thromboembolic events (all grades) [3]: 1 (13) n (%) | Motesanib-related Arterial thrombosis, Grade 3 [3]: 0 (0) n (%) | Motesanib-related Arterial thrombosis, Grade 4 [3]: 0 (0) n (%) | Motesanib-related Cerebrovascular accident, Grade 2 [3]: 1 (13) n (%) | Motesanib-related Deep vein thrombosis, Grade 2 [3]: 1 (13) n (%) | Motesanib-related Deep vein thrombosis, Grade 3 [3]: 0 (0) n (%) | Motesanib-related Gallbladder disorder, Grade 1 [3]: 0 (0) n (%) | Motesanib-related Hemorrhagic events, Grade 1 [3]: 1 (13) n (%) | Motesanib-related Jugular vein thrombosis, Grade 2 [3]: 0 (0) n (%) | Motesanib-related Neutropenia, Grade 3 [3]: 1 (13) n (%) | Motesanib-related Pulmonary embolism, Grade 4 [3]: 0 (0) n (%) | Motesanib-related Pulmonary embolism, Grade 5 [3]: 1 (13) n (%) | Motesanib-related Venous thromboembolic events (all grades) [3]: 2 (25) n (%) | Patients with any motesanib-related AE [3]: 6 (75) n (%) | Any motesanib-related AE, Grade 3 [4]: 1 (50) n (%) | Any motesanib-related AE, Grade 4 [4]: 1 (50) n (%) | Any motesanib-related AE, Grade 5 [4]: 0 (0) n (%) | Motesanib-related AE: Anorexia [4]: 0 (0) n (%) | Motesanib-related AE: Constipation [4]: 0 (0) n (%) | Motesanib-related AE: Deep vein thrombosis [4]: 0 (0) n (%) | Motesanib-related AE: Dehydration [4]: 0 (0) n (%) | Motesanib-related AE: Dermatitis acneiform [4]: 0 (0) n (%) | Motesanib-related AE: Diarrhea [4]: 1 (50) n (%) | Motesanib-related AE: Erythema [4]: 0 (0) n (%) | Motesanib-related AE: Fatigue [4]: 0 (0) n (%) | Motesanib-related AE: Hypertension [4]: 1 (50) n (%) | Motesanib-related AE: Nausea [4]: 0 (0) n (%) | Motesanib-related AE: Pulmonary embolism [4]: 0 (0) n (%) | Motesanib-related AE: Rash [4]: 2 (100) n (%) | Motesanib-related AE: Vomiting [4]: 0 (0) n (%) | Motesanib-related Arterial thromboembolic events (all grades) [4]: 1 (50) n (%) | Motesanib-related Arterial thrombosis, Grade 3 [4]: 0 (0) n (%) | Motesanib-related Arterial thrombosis, Grade 4 [4]: 1 (50) n (%) | Motesanib-related Cerebrovascular accident, Grade 2 [4]: 0 (0) n (%) | Motesanib-related Deep vein thrombosis, Grade 2 [4]: 0 (0) n (%) | Motesanib-related Deep vein thrombosis, Grade 3 [4]: 0 (0) n (%) | Motesanib-related Gallbladder disorder, Grade 1 [4]: 0 (0) n (%) | Motesanib-related Hemorrhagic events, Grade 1 [4]: 0 (0) n (%) | Motesanib-related Jugular vein thrombosis, Grade 2 [4]: 0 (0) n (%) | Motesanib-related Neutropenia, Grade 3 [4]: 0 (0) n (%) | Motesanib-related Pulmonary embolism, Grade 4 [4]: 0 (0) n (%) | Motesanib-related Pulmonary embolism, Grade 5 [4]: 0 (0) n (%) | Motesanib-related Venous thromboembolic events (all grades) [4]: 0 (0) n (%) | Patients with any motesanib-related AE [4]: 2 (100) n (%) | Any motesanib-related AE, Grade 3 [5]: 2 (33) n (%) | Any motesanib-related AE, Grade 4 [5]: 2 (33) n (%)
